Assay: Stability of pyridoxamine in peritoneal dialysis fluid (HPLC)
Type: physicochemical
Conditions: for peak height of pyridoxamine measured by HPLC / rate of peak height of pyridoxamine to first measurement day: 5 μg/ml
Excerpt: • Peritoneal dialysis fluid: Dianeal (registered trademark)-N PD-4-1.5 (Baxter Limited) • Pyridoxamine dihydrochloride (Wako Pure Chemical Industries, Ltd.)
The above peritoneal dialysis fluid is composed of an acid solution containing glucose (pH 3.5 to 4.5) and an alkaline solution containing an electrolyte, such as sodium lactate (pH 7.0 to 7.7), which are respectively placed in upper and lower compartments of a two-compartment container divided by an openable partition. When peritoneal dialysis treatment is performed on a chronic renal failure patient, the partition is opened between the upper and lower compartments so that both solutions are mixed, and the mixture is used after its pH is adjusted to a neutral range (pH 6.5 to 7.5).
The glucose-containing solution (pH 4.15) in the upper compartment of the peritoneal dialysis fluid bag, the electrolyte solution (pH 7.02) in the lower compartment, and the mixture of the upper and lower compartment solutions (pH 6.76) were used as solvents, and 5 μg/ml of pyridoxamine dihydrochloride was dissolved in each solvent to obtain test samples. The test samples were left for three weeks at room temperature (25±5° C.), which was almost the same condition that renal failure patients generally store. During that period, sampling was conducted with time, and the amount of pyridoxamine contained in each test sample was measured.
The amount of pyridoxamine contained in the test samples was measured by high-performance liquid chromatography (HPLC) under the following conditions.
High-performance liquid chromatography: Shimadzu Corporation
Mobile phase: 0.1% trifluoroacetic acid-containing aqueous solution
Stationary phase: C18 column (Develosil), 4.6×150 mm, 5 μm; Nomura Chemical Co., Ltd.)
Detection: UV detection of absorbance at a wavelength of 294 nm (UV detector: Shimadzu Corporation)

[1] = lower-compartment solution (pH 7.02), room temperature, 1st day, time 0
[2] = lower-compartment solution (pH 7.02), room temperature, 2nd day, time 24
[3] = lower-compartment solution (pH 7.02), room temperature, 6th day, time 120
[4] = lower-compartment solution (pH 7.02), room temperature, 7th day, time 144
[5] = lower-compartment solution (pH 7.02), room temperature, 8th day, time 168
[6] = lower-compartment solution (pH 7.02), room temperature, 10th day, time 216
[7] = lower-compartment solution (pH 7.02), room temperature, 15th day, time 336
[8] = lower-compartment solution (pH 7.02), room temperature, 21st day, time 480
[9] = peritoneal dialysis fluid mixture (pH 6.76), room temperature, 1st day, time 0
[10] = peritoneal dialysis fluid mixture (pH 6.76), room temperature, 2nd day, time 24
[11] = peritoneal dialysis fluid mixture (pH 6.76), room temperature, 6th day, time 120
[12] = peritoneal dialysis fluid mixture (pH 6.76), room temperature, 7th day, time 144
[13] = peritoneal dialysis fluid mixture (pH 6.76), room temperature, 8th day, time 168
[14] = peritoneal dialysis fluid mixture (pH 6.76), room temperature, 10th day, time 216
[15] = peritoneal dialysis fluid mixture (pH 6.76), room temperature, 15th day, time 336
[16] = peritoneal dialysis fluid mixture (pH 6.76), room temperature, 21st day, time 480
[17] = upper-compartment solution (pH 4.15), room temperature, 1st day, time 0
[18] = upper-compartment solution (pH 4.15), room temperature, 2nd day, time 24
[19] = upper-compartment solution (pH 4.15), room temperature, 6th day, time 120
[20] = upper-compartment solution (pH 4.15), room temperature, 7th day, time 144
[21] = upper-compartment solution (pH 4.15), room temperature, 8th day, time 168
[22] = upper-compartment solution (pH 4.15), room temperature, 10th day, time 216
[23] = upper-compartment solution (pH 4.15), room temperature, 15th day, time 336
[24] = upper-compartment solution (pH 4.15), room temperature, 21st day, time 480

With `Cc1ncc(CO)c(CN)c1O.Cl.Cl` [pyridoxamine dihydrochloride, Pyridoxamine dihydrochloride] the “peak height of pyridoxamine measured by HPLC” value (from here on “peak height … by HPLC”) [1] was 13265, the “rate of peak height of pyridoxamine to first measurement day” value (“rate of peak height of pyridoxamine” below) [1] was 100% and the “peak height … by HPLC” value [2] was 12959. The “rate of peak height of pyridoxamine” value [2] was 98%, the “peak height … by HPLC” value [3] was 13029 and the “rate of peak height of pyridoxamine” value [3] was 98%. The “peak height … by HPLC” value [4] was 12800, the “rate of peak height of pyridoxamine” value [4] was 96% and the “peak height … by HPLC” value [5] was 12206. For the same compound, the “rate of peak height of pyridoxamine” value [5] was 92%, the “peak height … by HPLC” value [6] was 11887 and the “rate of peak height of pyridoxamine” value [6] was 90%. For the same compound, the “peak height … by HPLC” value [7] was 11342, the “rate of peak height of pyridoxamine” value [7] was 86% and the “peak height … by HPLC” value [8] was 10505. For the same compound, the “rate of peak height of pyridoxamine” value [8] was 79%, the “peak height … by HPLC” value [9] was 11061 and the “rate of peak height of pyridoxamine” value [9] was 100%. The “peak height … by HPLC” value [10] was 9991, the “rate of peak height of pyridoxamine” value [10] was 90% and the “peak height … by HPLC” value [11] was 10323. For the same compound, the “rate of peak height of pyridoxamine” value [11] was 93%, the “peak height … by HPLC” value [12] was 9821 and the “rate of peak height of pyridoxamine” value [12] was 89%. The “peak height … by HPLC” value [13] was 9924, the “rate of peak height of pyridoxamine” value [13] was 90% and the “peak height … by HPLC” value [14] was 9612. The “rate of peak height of pyridoxamine” value [14] was 87%, the “peak height … by HPLC” value [15] was 9429 and the “rate of peak height of pyridoxamine” value [15] was 85%. The “peak height … by HPLC” value [16] was 6322, the “rate of peak height of pyridoxamine” value [16] was 57% and the “pyridoxamine content relative to original content” value (upper-compartment and lower-compartment solutions before mixing, room temperature, within three weeks) was 70%. For the same compound, the “peak height … by HPLC” value [17] was 14051, the “rate of peak height of pyridoxamine” value [17] was 100% and the “peak height … by HPLC” value [18] was 13271. The “rate of peak height of pyridoxamine” value [18] was 94%, the “peak height … by HPLC” value [19] was 13084 and the “rate of peak height of pyridoxamine” value [19] was 93%. The “peak height … by HPLC” value [20] was 13316, the “rate of peak height of pyridoxamine” value [20] was 95% and the “peak height … by HPLC” value [21] was 11561. For the same compound, the “rate of peak height of pyridoxamine” value [21] was 82%, the “peak height … by HPLC” value [22] was 12139 and the “rate of peak height of pyridoxamine” value [22] was 86%. For the same compound, the “peak height … by HPLC” value [23] was 11518, the “rate of peak height of pyridoxamine” value [23] was 82% and the “peak height … by HPLC” value [24] was 10605. The “rate of peak height of pyridoxamine” value [24] was 75% and the “stability of pyridoxamine in the peritoneal dialysis fluid” value (upper-compartment solution, lower-compartment solution and mixture, left for three weeks) was “unstable”.
